Like-named read-outs stand apart in the source and are kept apart here. Non-standard residues stand in square brackets, D forms with d. Residues, ends and D or L forms follow the SMILES beside them. Tyr(3-NO2) = N[C@@H](Cc1ccc(O)c([N+](=O)[O-])c1)C(=O)O; 2Abz = Nc1ccccc1C(=O)O
Experiments:
[1] = Cytotoxic effects, tetrazolium salt (MTT) metabolic assay; format: cell-based; details: read-out: TC50 (the source's name)
Description: In conjunction with the appropriate starting materials and intermediates, the procedures of examples 1 to 11 can be used to prepare other compounds of formula 1. Examples of compounds thus prepared are listed in the following Tables I, II and III together with mass spectrum data for the compounds, and results from the assays A and B of example 12. Cytotoxic effects noted as TC50 in the following tables were determined according to the tetrazolium salt (MTT) metabolic assay, F. Denizot and F. Lang, J. Immun. Meth., 1986, 89, 271.

[2] = tested on: HCMV (strain AD169, ATCC VR-538); assay: Plaque Reduction Assay (PRA); format: cell-based, human cytomegalovirus (HCMV); details: Hs-68 cells, approximately 50 PFU HCMV AD169, 8 days at 37°, read-out: EC50
Description: B. Plaque Reduction Assay (PRA)
Hs-68 cells (ATCC #CRL 1635) were seeded in 12-well plates at 83,000 cells/well in 1 mL of DMEM medium (Gibco Canada Inc.) supplemented with 10% fetal bovine serum (FBS, Gibco Canada Inc.). The plates were incubated for 3 days at 37° to allow the cells to reach 80-90% confluency prior to the assay.
The medium was removed from the cells by aspiration. The cells were then infected with approximately 50 PFU of HCMV (strain AD169, ATCC VR-538) in DMEM medium supplemented with 5% inactivated FBS (assay medium). (DMEM medium is commercially available and has been described by R. Dulbecco et al., Virology 1959, 8, 396.) The virus was allowed to adsorb to cells for 2 h at 37°. Following viral adsorption, the medium was removed from the wells by aspiration. The cells were then incubated with or without 1 mL of appropriate concentrations of test reagent in assay medium. Occasionally, test compounds were added 24 h post-infection. After 4 days of incubation at 37°, the medium was exchanged with fresh medium containing test compound and 4 days later the cells were fixed with 1% aqueous formaldehyde and stained with a 2% violet solution in 20% ethanol in water. Microscopic plaques were counted using a stereomicroscope. Drug effects were calculated as a percent reduction in the number of plaques in the presence of each drug concentration compared to the number observed in the absence of drug. Ganciclovir was used as a positive control in all experiments.

[3] = biological target: HCMV NO protease (Human cytomegalovirus, UniProt P16753); assay: HCMV NO Protease Assay (inhibition of cleavage of internally quenched fluorogenic peptide substrate); format: biochemical; details: for IC50: 100 nM HCMV NO protease, 5 μM substrate, 2.5 h at 30°, pH 8
Description: This particular assay determines the ability of a test compound to inhibit the activity of HCMV protease. More specifically, in the assay described herein, the inhibitory activity of the test compound is evaluated on the basis of its ability to interfere with the HCMV No protease cleavage of a fluorogenic peptide substrate which in turn is based on the maturation cleavage site of the enzyme.
A. HCMV NO Protease Assay
Material & Methods: Fluorescence measurements were recorded on a Perkin-Elmer LS-50B spectrofluorimeter equipped with a plate reader accessory. UV measurements were recorded on a Thermomax® microplate reader from Molecular Devices Corporation, Menlo Park, Calif., USA.
HCMV NO protease was assayed with an internally quenched fluorogenic substrate based on the maturation cleavage site (Abz-[…](3-NO2)R--OH, kcat /KM =260 M^-1 s^-1). The fluorescence increase upon cleavage of the Ala-Ser amide bond was monitored using excitation λ=312 nm (slit 2.5 nm) and emission λ=415 nm (slit 5 nm). A protocol adaptable to a 96-well plate format was designed for the determination of IC50 values of inhibitors. […] After this period, enzymatic hydrolysis of the fluorogenic substrate in the absence of inhibitor led to about a 30% conversion. Quenching was not required before fluorescence measurement since the total scanning time by the plate reader accessory was brief relative to the duration of the reaction. The aqueous incubation buffer contained 50 mM tris(hydroxymethyl)aminomethane.HCl pH 8, 0.5M Na2 SO4, 50 mM NaCl, 0.1 mM EDTA, 1 mM tris(2-carboxyethyl)phosphine.HCl, 3% v/v DMSO and 0.05% w/v casein. The final concentrations of HCMV NO protease (expressed in terms of total monomer concentration) and substrate were 100 nM and 5 μM respectively. IC50 values were obtained through fitting of the inhibition curve to a competitive inhibition model using SAS NLIN procedure. The mode of inhibition was determined by measurements of the initial rates (in cuvettes) at various substrate concentrations in the buffer as described above. The IC50 values listed in the following tables the IC50 were obtained according to this assay.

[4] = Human betaherpesvirus 5, AD169, Hs68, 192 h

HCMV NO protease, sequence (P16753 1-256): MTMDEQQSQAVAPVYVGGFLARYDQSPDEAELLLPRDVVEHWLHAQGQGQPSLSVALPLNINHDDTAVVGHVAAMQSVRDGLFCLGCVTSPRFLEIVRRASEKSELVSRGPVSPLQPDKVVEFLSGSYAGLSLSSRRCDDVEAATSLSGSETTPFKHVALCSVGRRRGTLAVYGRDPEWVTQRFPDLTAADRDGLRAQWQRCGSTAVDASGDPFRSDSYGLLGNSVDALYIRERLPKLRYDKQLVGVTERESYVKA

## CCC(NC(=O)N1C(=O)[C@@H](C)[C@@H]1Cc1ccccc1)c1ccncc1 (single isomer, unassigned) [Entry 205]
[1]
  CC50: > 250 µM
[2]
  EC50: > 250 µM
[3]
  IC50: 21 µM

## CCC(NC(=O)N1C(=O)[C@@H](C)[C@@H]1Cc1ccccc1)c1ccncc1 (single isomer, unassigned) [Entry 206]
[1]
  CC50: > 250 µM
[2]
  EC50: 96 µM
[3]
  IC50: 3.2 µM

## CN(Cc1ccc(C(F)(F)F)cc1)C(=O)N1C(=O)CC1Cc1nnn(C)n1 (stereo in doubt) [Entry 223, 4(R)-(2-methyl-2H-tetrazol-5-ylmethyl)-2-oxoazetidine-1-carboxylic acid N-methyl-N{{(4-trifluoromethyl)phenyl}methyl}amide]
[1]
  CC50: > 195 µM
[2]; [4]
  EC50: 94 µM
[3]
  IC50: 5.7 µM

## O=C1C[C@H](Cc2ccccc2)N1C(=O)Nc1ccc(F)cc1 [Entry 101]
[1]
  CC50: > 250 µM
[2]; [4]
  EC50: > 250 µM
[3]
  IC50: 3.7 µM

## COc1ccc(NC(=O)N2C(=O)C[C@@H]2Cc2ccccc2)cc1 [Entry 102]
[1]
  CC50: > 250 µM
[2]; [4]
  EC50: 215 µM
[3]
  IC50: 3.9 µM

## Cc1ccc(NC(=O)N2C(=O)C[C@@H]2Cc2ccccc2)cc1 [Entry 103]
[1]
  CC50: > 250 µM
[2]; [4]
  EC50: > 250 µM
[3]
  IC50: 5.3 µM

## O=C1C[C@H](Cc2ccccc2)N1C(=O)Nc1ccccc1 [Entry 104]
[1]
  CC50: > 250 µM
[2]; [4]
  EC50: > 250 µM

## C[C@@H](NC(=O)N1C(=O)C[C@@H]1Cc1ccccc1)c1cccc2ccccc12 [Entry 105]
[1]
  CC50: > 18 µM
[2]; [4]
  EC50: > 18 µM
[3]
  IC50: 7.7 µM

## COc1c(C)cc(NC(=O)N2C(=O)C[C@@H]2Cc2ccccc2)cc1C [Entry 106]
[1]
  CC50: > 250 µM
[2]; [4]
  EC50: 190 µM
[3]
  IC50: 2.4 µM

## O=C1C[C@H](Cc2ccccc2)N1C(=O)Nc1ccncc1 [Entry 107]
[1]
  CC50: > 250 µM
[2]; [4]
  EC50: > 250 µM
[3]
  IC50: 1.9 µM

## CCC(NC(=O)N1C(=O)C[C@@H]1Cc1ccccc1)c1ccncc1 (stereo partly drawn) [Entry 108]
[3]
  IC50: 28 µM

## CCC(NC(=O)N1C(=O)C[C@@H]1Cc1ccccc1)c1ccncc1 (stereo partly drawn) [Entry 109]
[1]
  CC50: > 250 µM
[2]; [4]
  EC50: 130 µM
[3]
  IC50: 1.6 µM

## CCC(CC)NC(=O)N1C(=O)C[C@@H]1Cc1ccccc1 [Entry 110]
[3]
  IC50: 38 µM

## O=C1C[C@H](Cc2ccccc2)N1C(=O)NCc1ccc2c(c1)OCO2 [Entry 111]
[1]
  CC50: > 150 µM
[2]; [4]
  EC50: > 150 µM
[3]
  IC50: 3.7 µM

## CN(Cc1ccccc1)C(=O)N1C(=O)C[C@@H]1Cc1ccccc1 [Entry 112]
[1]
  CC50: > 150 µM
[2]; [4]
  EC50: 150 µM

## CN(C)C(=O)N1C(=O)C[C@@H]1Cc1ccccc1 [Entry 113]
[3]
  IC50: 50 µM

## CN(CCc1ccccc1)C(=O)N1C(=O)C[C@@H]1Cc1ccccc1 [Entry 114]
[3]
  IC50: 38 µM

## CN(CC(=O)OCc1ccccc1)C(=O)N1C(=O)C[C@@H]1Cc1ccccc1 [Entry 115]
[3]
  IC50: 11.7 µM

## O=C1C[C@H](Cc2ccccc2)N1C(=O)NCc1ccccc1 [Entry 116, 4(S)-Benzyl-2-oxoazetidine-1-carboxylic acid benzyl-amide]
[1]
  CC50: > 250 µM
[2]; [4]
  EC50: 53 µM
[3]
  IC50: 8.9 µM

## CC[C@@H](NC(=O)N1C(=O)C[C@@H]1Cc1ccccc1)c1ccccc1 [Entry 118]
[1]
  CC50: > 250 µM
[2]; [4]
  EC50: 180 µM
[3]
  IC50: 2.6 µM

## C[C@H](c1ccccc1)N(C)C(=O)N1C(=O)C[C@@H]1Cc1ccccc1 [Entry 119]
[3]
  IC50: 24 µM

## CC(c1ccccc1)N(C)C(=O)N1C(=O)CC1Cc1ccccc1 (stereo not drawn) [Entry 120]
[3]
  IC50: 17.7 µM

## CCCC(NC(=O)N1C(=O)CC1Cc1ccccc1)c1ccccc1 (stereo not drawn) [Entry 121]
[1]
  CC50: > 250 µM
[2]; [4]
  EC50: 160 µM
[3]
  IC50: 3.4 µM

## CN(Cc1ccc([N+](=O)[O-])cc1)C(=O)N1C(=O)C[C@@H]1Cc1ccccc1 [Entry 122]
[1]
  CC50: > 250 µM
[2]; [4]
  EC50: 105 µM
[3]
  IC50: 1.5 µM

## CCC(c1ccccc1)N(C)C(=O)N1C(=O)CC1Cc1ccccc1 (stereo not drawn) [Entry 123]
[3]
  IC50: 30 µM

## CN(Cc1ccccc1[N+](=O)[O-])C(=O)N1C(=O)C[C@@H]1Cc1ccccc1 [Entry 124]
[1]
  CC50: > 250 µM
[2]; [4]
  EC50: 150 µM
[3]
  IC50: 6.9 µM

## CN(Cc1ccc(N)cc1)C(=O)N1C(=O)C[C@@H]1Cc1ccccc1 [Entry 125]
[3]
  IC50: 13.4 µM

## CN(Cc1ccc(Cl)cc1)C(=O)N1C(=O)C[C@@H]1Cc1ccccc1 [Entry 126]
[1]
  CC50: > 250 µM
[2]; [4]
  EC50: 150 µM
[3]
  IC50: 6.9 µM

## Cc1ccc(CN(C)C(=O)N2C(=O)C[C@@H]2Cc2ccccc2)cc1 [Entry 129]
[1]
  CC50: > 200 µM
[2]; [4]
  EC50: 140 µM
[3]
  IC50: 8.9 µM

## COc1ccc(CN(C)C(=O)N2C(=O)C[C@@H]2Cc2ccccc2)cc1 [Entry 130]
[1]
  CC50: > 250 µM
[2]; [4]
  EC50: 110 µM

## CN(Cc1ccc(C(F)(F)F)cc1)C(=O)N1C(=O)C[C@@H]1Cc1ccccc1 [Entry 135, 4(S)-Benzyl-2-oxoazetidine-1-carboxylic acid N-methyl-N-{{4-(trifluoromethyl)phenyl}methyl}amide]
[1]
  CC50: > 250 µM
[2]; [4]
  EC50: 190 µM

## CN(Cc1ccc([S+]([O-])C(F)(F)F)cc1)C(=O)N1C(=O)C[C@@H]1Cc1ccccc1 (stereo partly drawn) [Entry 138]
[1]
  CC50: > 250 µM
[2]; [4]
  EC50: > 250 µM

## O=C1C[C@H](Cc2ccccc2)N1C(=O)NC1CCc2ccccc21 (stereo partly drawn) [Entry 140]
[3]
  IC50: 14 µM

## CC(NC(=O)N1C(=O)CC1Cc1ccccc1)c1ccccc1 (stereo not drawn) [Entry 141]
[3]
  IC50: 42 µM

## O=C1C[C@H](Cc2ccccc2)N1C(=O)NCc1ccccn1 [Entry 143]
[3]
  IC50: 33 µM

## C[C@@H]1C(=O)N(C(=O)NCc2ccncc2)[C@H]1Cc1ccccc1 [Entry 201]
[1]
  CC50: > 250 µM
[2]; [4]
  EC50: 190 µM

## CO[C@@H]1C(=O)N(C(=O)NCc2ccncc2)[C@H]1Cc1ccccc1 [Entry 210, 4(S)-Benzyl-3(S)-methoxy-2-oxoazetidine-1-carboxylic acid (4-pyridinylmethyl)amide]
[1]
  CC50: > 250 µM
[2]; [4]
  EC50: 210 µM

## CC[C@@H](NC(=O)N1C(=O)C[C@H]1C(C)(C)C)c1ccccc1 [Entry 215, 4(S)-tert-Butyl-2-oxoazetidine-1-carboxylic acid (1(R)-phenylpropyl)amide]
[3]
  IC50: 41 µM

## CN(Cc1ccc(C(F)(F)F)cc1)C(=O)N1C(=O)C[C@@H]1Cc1ncoc1-c1ccccc1 [Entry 220]
[3]
  IC50: 14 µM

## O=C1C[C@H](Cc2ccccc2)N1C(=O)N1CCOCC1 [Entry 301]
[3]
  IC50: 142 µM

## O=C1C[C@H](Cc2ccccc2)N1C(=O)N1CCc2ccccc2C1 [Entry 302]
[3]
  IC50: 36 µM

## O=C1C[C@H](Cc2ccccc2)N1C(=O)N1CCCC1 [Entry 303]
[3]
  IC50: 63 µM

## O=C1C[C@H](Cc2ccccc2)N1C(=O)N1CCCc2ccccc21 [Entry 304]
[3]
  IC50: 154 µM

## CC(C)C[C@H](NC(=O)[C@H](CCCNC(=N)N)NC(=O)[C@H](CO)NC(=O)[C@H](CO)NC(=O)[C@H](C)NC(=O)[C@H](CC(N)=O)NC(=O)[C@@H](NC(=O)[C@@H](NC(=O)c1ccccc1N)C(C)C)C(C)C)C(=O)N[C@@H](Cc1ccc(O)c([N+](=O)[O-])c1)C(=O)N[C@@H](CCCNC(=N)N)C(=O)O [reference compound] (H-[2Abz]VVNASSRL[Tyr(3-NO2)]R-OH)
[3]; fluorogenic substrate of HCMV NO protease
  kcat/KM: 260 M⁻¹ s⁻¹
